Experimental data: US20210348164A1, “ENDOGENOUS CYTOPLASMIC ALU COMPLEMENTARY DNA IN AGE-RELATED MACULAR DEGENERATION” (University of Virginia Patent Foundation, priority 2018, published 2021)

Legend:
[1] = tested on: Alu G25C RNA-induced RPE degeneration; assay: Alu G25C RNA-induced RPE degeneration in wild-type mice; format: in vivo, mouse; details: WT mice; subretinal Alu G25C RNA
[2] = tested on: Alu cDNA in ARPE-19 cells; assay: Alu cDNA in ARPE-19 cells (Alu c-PCR, in situ hybridization); format: cell-based, human; details: heat shock or DICER1 AS, in situ hybridization
Method: Cell culture and transfection. Primary mouse and human RPE cells were isolated as previously described (Kerur et al., 2018). All cells were maintained at 37° C. in a 5% CO2 environment. Mouse RPE cells were cultured in DMEM supplemented with 20% FBS and penicillin/streptomycin antibiotics at standard concentrations; primary human RPE cells were maintained in DMEM supplemented with 10% FBS and antibiotics. The human RPE cell line ARPE19 was cultured as previously described (Kerur et al., 2018) and maintained in DMEM-F12 containing penicillin/streptomycin, Fungizone, and gentamicin. HEK293T cells were cultured in DMEM with 10% fetal bovine serum (FBS) with 100 U/ml penicillin/streptomycin and 2 mM L-glutamine. […]
In situ hybridization. […] Visualization of fluorescein-labelled probe was performed with the TSA™ plus fluorescence system or the TSA™ plus Cy5 system (PerkinElmer). The fluorescent or Cy5 signals were detected using a Leica SP-5 or MR Nikon confocal microscope system. […]

With “L1 siRNA: siRNA targeting L1; cholesterol-conjugated mouse L1 siRNA (SEQ ID NOs: 48 and 49) in vivo, human L1 siRNA sequences in human cells (chain 1 ACUAUUACUCUGAUACCTT; chain 2 UGUACUAAGGUCAAAUCTT; cholesterol conjugated, position not given here)” as the substance, how does the “Alu G25C RNA-induced RPE degeneration” value [1] read?
The value was “prevented Alu G25C RNA-induced RPE degeneration”.

And the “Alu cDNA induction” value [2]?
The value was “reduced Alu cDNA formation”.
